The experiment has as its system Lewis lung carcinoma i.m., BDF1 mice, T/C %. Kind of experiment: NCI In Vivo Anticancer Drug Screen. Data for tumor model Lewis Lung Carcinoma (intramuscular) in B6D2F1 (BDF1) mice. Summed up:
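Transplantable tumour model; readout survival or tumour size; value = treated (T) / vehicle control (C).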

Where [1] appears, read: endpoint: median survival time, dose: 12.5 mg/kg/injection, schedule: Q01DX011 (ip), vehicle: saline, higher = longer survival.
[2] abbreviates: endpoint: median survival time, dose: 25.0 mg/kg/injection, schedule: Q01DX011 (ip), vehicle: saline, higher = longer survival.
Setting [3] is: endpoint: median survival time, dose: 4.0 mg/kg/injection, schedule: Q01DX011 (ip), vehicle: saline, higher = longer survival.
Setting [4] is: endpoint: median survival time, dose: 8.0 mg/kg/injection, schedule: Q01DX011 (ip), vehicle: saline, higher = longer survival.

Values joined by “and” are separate entries in the source; they are usually repeats but may differ in a detail not shown here. Equal entries are not always repeated. Results filed as inconclusive are left out.

Regarding `O=C(O)C1CSCN1` (stereo unspecified), the T/C runs as follows: under setting [1], 118 % of control; under setting [2], 105 % of control; (endpoint: median survival time, dose: 50.0 mg/kg/injection, schedule: Q01DX011 (ip), vehicle: saline, higher = longer survival) 97 % of control; (endpoint: median survival time, dose: 100.0 mg/kg/injection, schedule: Q01DX011 (ip), vehicle: saline, higher = longer survival) 105 % of control.
Regarding `Cc1nc(N)nc(N)c1-c1ccc(Cl)c(Cl)c1`, the T/C (endpoint: mean tumor weight, dose: 6.0 mg/kg/injection, schedule: Q04DX004 (ip), vehicle: saline, higher = larger tumour) was 180 % of control; the T/C (endpoint: median survival time, dose: 4.0 mg/kg/injection, schedule: Q04DX004 (ip), vehicle: saline, higher = longer survival) is 100 % of control; the T/C (endpoint: median survival time, dose: 8.0 mg/kg/injection, schedule: Q04DX004 (ip), vehicle: saline, higher = longer survival) was 116 % of control.
For `CCN1c2ccccc2C(Cl)(c2ccc(N(C)C)cc2)c2ccccc21`, the T/C (endpoint: mean tumor weight (est.), dose: 3.13 mg/kg/injection, schedule: Q01DX011 (ip), vehicle: saline, higher = larger tumour) was 121 % of control; the T/C (endpoint: mean tumor weight (est.), dose: 6.25 mg/kg/injection, schedule: Q01DX011 (ip), vehicle: saline, higher = larger tumour) was 50 % of control; the T/C (endpoint: mean tumor weight (est.), dose: 12.5 mg/kg/injection, schedule: Q01DX011 (ip), vehicle: saline, higher = larger tumour) is 47 % of control.
Regarding `CCc1ccc(/C=C/c2ccc(O)c3ncccc23)[n+](C)c1`, the T/C is 53 % of control (endpoint: mean tumor weight, dose: 4.0 mg/kg/injection, schedule: Q01DX011 (ip), vehicle: saline, higher = larger tumour); 61 % of control (endpoint: mean tumor weight, dose: 8.0 mg/kg/injection, schedule: Q01DX011 (ip), vehicle: saline, higher = larger tumour); 46 % of control (endpoint: mean tumor weight, dose: 16.0 mg/kg/injection, schedule: Q01DX011 (ip), vehicle: saline, higher = larger tumour); 97 % of control under setting [3]; 116 % of control under setting [4].
In the case of `O=C1NC(O)CCN1C1OC(CO)C(O)C1O` (stereo unspecified), the T/C (endpoint: median survival time, dose: 25.0 mg/kg/injection, schedule: Q01DX011 (ip), vehicle: water, higher = longer survival) is 89 % of control; the T/C (endpoint: median survival time, dose: 50.0 mg/kg/injection, schedule: Q01DX011 (ip), vehicle: water, higher = longer survival) was 93 % of control; the T/C (endpoint: median survival time, dose: 400.0 mg/kg/injection, schedule: Q01DX011 (ip), vehicle: water, higher = longer survival) is 116 % of control.
As for `CCCCCCCCCCCCn1c(C)nc2ccccc21`, the T/C was 84 % of control (endpoint: mean tumor weight (est.), dose: 0.63 mg/kg/injection, schedule: Q01DX011 (ip), vehicle: saline, higher = larger tumour); 89 % of control (endpoint: mean tumor weight (est.), dose: 1.25 mg/kg/injection, schedule: Q01DX011 (ip), vehicle: saline, higher = larger tumour); 104 % of control (endpoint: median survival time, dose: 0.63 mg/kg/injection, schedule: Q01DX011 (ip), vehicle: saline, higher = longer survival); 98 % of control (endpoint: median survival time, dose: 1.25 mg/kg/injection, schedule: Q01DX011 (ip), vehicle: saline, higher = longer survival).
Regarding `Nc1nc(=O)n(C2OC(CO)C(O)C2O)cc1F` (stereo unspecified), the T/C reads like this: under setting [3], 98 % of control; under setting [4], 117 % of control; (endpoint: median survival time, dose: 16.0 mg/kg/injection, schedule: Q01DX011 (ip), vehicle: saline, higher = longer survival) 98 % of control; (endpoint: median survival time, dose: 32.0 mg/kg/injection, schedule: Q01DX011 (ip), vehicle: saline, higher = longer survival) 110 % of control.
Consider `CC(SC(C)C(=O)NN)C(=O)NN` (stereo unspecified), for which the T/C was 80 % of control (endpoint: mean tumor weight (est.), dose: 138.75 mg/kg/injection, schedule: Q01DX011 (ip), vehicle: saline, higher = larger tumour); 87 % of control (endpoint: mean tumor weight (est.), dose: 277.5 mg/kg/injection, schedule: Q01DX011 (ip), vehicle: saline, higher = larger tumour); 76 % of control (endpoint: mean tumor weight (est.), dose: 555.0 mg/kg/injection, schedule: Q01DX011 (ip), vehicle: saline, higher = larger tumour); 90 % of control (endpoint: median survival time, dose: 138.75 mg/kg/injection, schedule: Q01DX011 (ip), vehicle: saline, higher = longer survival); 96 % of control (endpoint: median survival time, dose: 277.5 mg/kg/injection, schedule: Q01DX011 (ip), vehicle: saline, higher = longer survival); 90 % of control (endpoint: median survival time, dose: 555.0 mg/kg/injection, schedule: Q01DX011 (ip), vehicle: saline, higher = longer survival).
With `O=c1[nH]cc(F)c(=O)n1C1OC(CO)C(O)C1O` (stereo unspecified), the T/C reads like this: (endpoint: mean tumor weight (est.), dose: 75.0 mg/kg/injection, schedule: Q01DX011 (ip), vehicle: saline, higher = larger tumour) 67 % of control; (endpoint: mean tumor weight (est.), dose: 150.0 mg/kg/injection, schedule: Q01DX011 (ip), vehicle: saline, higher = larger tumour) 99 % of control; (endpoint: mean tumor weight (est.), dose: 300.0 mg/kg/injection, schedule: Q01DX011 (ip), vehicle: saline, higher = larger tumour) 106 % of control; (endpoint: mean tumor weight (est.), dose: 600.0 mg/kg/injection, schedule: Q01DX011 (ip), vehicle: saline, higher = larger tumour) 82 % of control; (endpoint: mean tumor weight (est.), dose: 1200.0 mg/kg/injection, schedule: Q01DX011 (ip), vehicle: saline, higher = larger tumour) 84 % of control; (endpoint: median survival time, dose: 75.0 mg/kg/injection, schedule: Q01DX011 (ip), vehicle: saline, higher = longer survival) 107 % of control. The T/C was 98 % of control (endpoint: median survival time, dose: 600.0 mg/kg/injection, schedule: Q01DX011 (ip), vehicle: saline, higher = longer survival) and 107 % of control (endpoint: median survival time, dose: 1200.0 mg/kg/injection, schedule: Q01DX011 (ip), vehicle: saline, higher = longer survival).
In the case of `O=NN(CCCl)C(=O)Nc1ccc(CCCl)cc1`, the T/C is 110 % of control (endpoint: median survival time, dose: 3.0 mg/kg/injection, schedule: Q07DX003 (ip), vehicle: Klucel (hydroxypropylcellulose) (HPC), higher = longer survival); 116 % of control (endpoint: median survival time, dose: 5.0 mg/kg/injection, schedule: Q07DX003 (ip), vehicle: Klucel (hydroxypropylcellulose) (HPC), higher = longer survival); 108 % of control (endpoint: median survival time, dose: 8.4 mg/kg/injection, schedule: Q07DX003 (ip), vehicle: Klucel (hydroxypropylcellulose) (HPC), higher = longer survival); 116 % of control (endpoint: median survival time, dose: 14.0 mg/kg/injection, schedule: Q07DX003 (ip), vehicle: Klucel (hydroxypropylcellulose) (HPC), higher = longer survival); 95 % of control (endpoint: median survival time, dose: 23.0 mg/kg/injection, schedule: Q07DX003 (ip), vehicle: Klucel (hydroxypropylcellulose) (HPC), higher = longer survival).
Turning to `N=C(N)SCc1c2ccccc2c(CSC(=N)N)c2ccccc12`, the T/C is 94 % of control (endpoint: mean tumor weight, dose: 12.5 mg/kg/injection, schedule: Q01DX011 (ip), vehicle: saline, higher = larger tumour); 84 % of control (endpoint: mean tumor weight, dose: 25.0 mg/kg/injection, schedule: Q01DX011 (ip), vehicle: saline, higher = larger tumour); 52 % of control (endpoint: mean tumor weight, dose: 50.0 mg/kg/injection, schedule: Q01DX011 (ip), vehicle: saline, higher = larger tumour); 110 % of control under setting [1]; 104 % of control under setting [2].
Consider `C1CN1c1nc(N2CC2)nc(N2CC2)n1`, for which the T/C by setting is: (endpoint: mean tumor weight (est.), dose: 0.06 mg/kg/injection, schedule: Q01DX011 (ip), vehicle: saline, higher = larger tumour) 78 % of control; (endpoint: mean tumor weight (est.), dose: 0.12 mg/kg/injection, schedule: Q01DX011 (ip), vehicle: saline, higher = larger tumour) 67 % of control; (endpoint: mean tumor weight (est.), dose: 0.25 mg/kg/injection, schedule: Q01DX011 (ip), vehicle: saline, higher = larger tumour) 37 % of control; (endpoint: mean tumor weight (est.), dose: 0.5 mg/kg/injection, schedule: Q01DX011 (ip), vehicle: saline, higher = larger tumour) 37 % of control; (endpoint: mean tumor weight, dose: 0.12 mg/kg/injection, schedule: Q01DX011 (ip), vehicle: saline, higher = larger tumour) 73 % of control; (endpoint: mean tumor weight, dose: 0.25 mg/kg/injection, schedule: Q01DX011 (ip), vehicle: saline, higher = larger tumour) 73 % of control. Also, the T/C (endpoint: median survival time, dose: 0.06 mg/kg/injection, schedule: Q01DX011 (ip), vehicle: saline, higher = longer survival) is 97 % of control; the T/C (endpoint: median survival time, dose: 0.1 mg/kg/injection, schedule: Q01DX011 (ip), vehicle: saline, higher = longer survival) was 116 % of control; the T/C (endpoint: median survival time, dose: 0.12 mg/kg/injection, schedule: Q01DX011 (ip), vehicle: saline, higher = longer survival) was 100 % of control and 106 % of control; the T/C (endpoint: median survival time, dose: 0.2 mg/kg/injection, schedule: Q01DX011 (ip), vehicle: saline, higher = longer survival) is 106 % of control; the T/C (endpoint: median survival time, dose: 0.25 mg/kg/injection, schedule: Q01DX011 (ip), vehicle: saline, higher = longer survival) was 110 % of control; the T/C (endpoint: median survival time, dose: 0.4 mg/kg/injection, schedule: Q01DX011 (ip), vehicle: saline, higher = longer survival) was 89 % of control. The T/C (endpoint: median survival time, dose: 0.5 mg/kg/injection, schedule: Q01DX011 (ip), vehicle: saline, higher = longer survival) is 122 % of control.
For `CC(C)[C@](O)(C(=O)OCC1=CC[N+]2([O-])CC[C@@H](O)[C@@H]12)[C@H](C)O` (stereo partly specified), the T/C reads like this: (endpoint: mean tumor weight (est.), dose: 200.0 mg/kg/injection, schedule: Q01DX011 (ip), vehicle: saline, higher = larger tumour) 76 % of control; (endpoint: mean tumor weight (est.), dose: 400.0 mg/kg/injection, schedule: Q01DX011 (ip), vehicle: saline, higher = larger tumour) 78 % of control; (endpoint: mean tumor weight, dose: 50.0 mg/kg/injection, schedule: Q01DX011 (ip), vehicle: water, higher = larger tumour) 78 % of control; (endpoint: mean tumor weight, dose: 100.0 mg/kg/injection, schedule: Q01DX011 (ip), vehicle: water, higher = larger tumour) 44 % of control; (endpoint: mean tumor weight, dose: 200.0 mg/kg/injection, schedule: Q01DX011 (ip), vehicle: water, higher = larger tumour) 56 % of control; (endpoint: mean tumor weight, dose: 400.0 mg/kg/injection, schedule: Q01DX011 (ip), vehicle: water, higher = larger tumour) 47 % of control. The T/C was 101 % of control (endpoint: median survival time, dose: 200.0 mg/kg/injection, schedule: Q01DX011 (ip), vehicle: saline, higher = longer survival) and 101 % of control (endpoint: median survival time, dose: 400.0 mg/kg/injection, schedule: Q01DX011 (ip), vehicle: saline, higher = longer survival).

Source of the values: PubChem BioAssay AID272 (DTP/NCI, 2004).
